Results on 20 compounds are retold here after patent publication US12338243B2, “P2X7 modulators” (JANSSEN PHARMACEUTICA NV, priority 2014, dated 2025).

For one test, the target named is T1, P2X7 (Homo sapiens, UniProt Q99572).
T1 sequence (Q99572 1-595): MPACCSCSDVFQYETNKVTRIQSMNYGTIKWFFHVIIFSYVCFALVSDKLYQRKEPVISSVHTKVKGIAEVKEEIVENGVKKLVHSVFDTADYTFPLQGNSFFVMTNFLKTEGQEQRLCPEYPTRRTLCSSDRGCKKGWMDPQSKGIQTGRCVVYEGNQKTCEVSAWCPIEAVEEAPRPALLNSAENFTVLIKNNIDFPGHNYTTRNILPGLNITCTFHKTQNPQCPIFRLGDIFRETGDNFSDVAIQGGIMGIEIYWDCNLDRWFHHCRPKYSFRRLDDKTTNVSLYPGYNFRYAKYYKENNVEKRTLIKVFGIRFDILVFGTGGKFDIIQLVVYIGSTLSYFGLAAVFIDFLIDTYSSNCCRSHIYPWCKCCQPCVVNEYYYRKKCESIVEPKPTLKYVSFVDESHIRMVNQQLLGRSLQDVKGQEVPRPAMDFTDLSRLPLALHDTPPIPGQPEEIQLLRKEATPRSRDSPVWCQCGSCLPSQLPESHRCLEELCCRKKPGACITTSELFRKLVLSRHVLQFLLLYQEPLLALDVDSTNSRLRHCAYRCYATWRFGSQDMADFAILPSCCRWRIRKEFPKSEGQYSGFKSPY
Briefly: Ca2+ flux (FLIPR) in 1321N1 cells expressing recombinant human P2X7 channel. Type of test: cell-based. Also noted: expressed in transfected cells; host or cells: 1321N1 cells. The settings on record: 250 μM BzATP. The protocol:
P2X7 Antagonism in Recombinant Human P2X7 Cells or Recombinant Rat P2X7 Cells: (a) Ca^2+ Flux and (b) Radioligand Binding
(a) Ca^2+ flux: 1321N1 cells expressing the recombinant human or rat P2X7 channel was cultured in HyQ DME/(HyClone/Dulbecco's Modified Eagle Medium) high glucose supplemented with 10% Fetal Bovine Serum (FBS) and appropriate selection marker. Cells were seeded at a density of 25000 cells/well (96-well clear bottom black walled plates) in 100 μl volume/well. On the day of the experiment, cell plates were washed with assay buffer, containing (in mM): 130 NaCl, 2 KCl, 1 CaCl2), 1 MgCl2, 10 HEPES, 5 glucose; pH 7.40 and 300 mOs. After the wash, cells were loaded with the Calcium-4 dye (Molecular Device) and incubated in the dark for 60 minutes. Test compounds were prepared at 250× the test concentration in neat DMSO. Intermediate 96-well compound plates were prepared by transferring 1.2 μL of the compound into 300 μL of assay buffer. A further 3× dilution occurred when transferring 50 μL/well of the compound plate to 100 μL/well in the cell plate. Cells were incubated with test compounds and dye for 30 minutes. […] The fluorescence change was measured 180 seconds after adding the agonist.
For orientation: Calcium assays in cells follow changes in intracellular calcium, usually with a dye or a luminescent sensor.

For another test, the target named is T2, rat P2X7 (Rattus norvegicus, UniProt Q64663).
T2 sequence (Q64663 1-595): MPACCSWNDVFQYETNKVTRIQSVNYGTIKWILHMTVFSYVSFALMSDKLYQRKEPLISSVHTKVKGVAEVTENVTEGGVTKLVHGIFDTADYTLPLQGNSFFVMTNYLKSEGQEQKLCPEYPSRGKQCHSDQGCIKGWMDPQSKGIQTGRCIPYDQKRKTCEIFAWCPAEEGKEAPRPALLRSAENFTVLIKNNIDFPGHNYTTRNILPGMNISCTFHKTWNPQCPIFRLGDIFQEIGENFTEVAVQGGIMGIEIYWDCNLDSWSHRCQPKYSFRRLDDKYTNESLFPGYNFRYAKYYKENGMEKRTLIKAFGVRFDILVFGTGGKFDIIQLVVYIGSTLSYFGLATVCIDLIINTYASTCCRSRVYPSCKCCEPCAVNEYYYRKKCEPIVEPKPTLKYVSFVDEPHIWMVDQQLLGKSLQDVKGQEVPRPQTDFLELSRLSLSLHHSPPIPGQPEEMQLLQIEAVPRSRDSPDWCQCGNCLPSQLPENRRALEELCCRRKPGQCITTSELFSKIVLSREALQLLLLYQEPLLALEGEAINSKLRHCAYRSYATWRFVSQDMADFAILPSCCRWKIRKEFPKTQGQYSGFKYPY
In words: Ca2+ flux (FLIPR) in 1321N1 cells expressing recombinant rat P2X7 channel. The settings on record: FLIPR (rat) IC50 (μM), 250 μM BzATP.

For orientation: IC50 means the concentration needed to halve the response being measured. In the case of `CC1c2nnc(C3CCCCC3)n2CCN1C(=O)c1cccc(C(F)(F)F)c1Cl` (stereo not shown) [Example 61, (2-chloro-3-(trifluoromethyl)phenyl)(3-cyclohexyl-8-methyl-5,6-dihydro-[1,2,4]triazolo[4,3-a]pyrazin-7(8H)-yl)methanone], the IC50 was 0.34 µM at P2X7 and > 10 µM at rat P2X7.
On to `CC1c2nnc(C3CC3)n2CCN1C(=O)c1cccc(C(F)(F)F)c1Cl` (stereo not shown) [Example 65, (2-chloro-3-(trifluoromethyl)phenyl)(3-cyclopropyl-8-methyl-5,6-dihydro-[1,2,4]triazolo[4,3-a]pyrazin-7(8H)-yl)methanone], for which the IC50 on P2X7 and at rat P2X7 was > 10 µM throughout.
On to `COc1ccc(-c2nnc3n2C[C@H](C)N(C(=O)c2cccc(C(F)(F)F)c2Cl)C3)nc1` [Example 71], for which the IC50 at P2X7 is 1.22 µM; on rat P2X7 it was > 10 µM.
Turning to `O=C(c1cccc(C(F)(F)F)c1Cl)N1CCn2c(C3CC3)nnc2[C@H]1c1ccccc1` [Example 77, (R)-(2-chloro-3-(trifluoromethyl)phenyl)(3-cyclopropyl-8-phenyl-5,6-dihydro-[1,2,4]triazolo[4,3-a]pyrazin-7(8H)-yl)methanone], the IC50 at P2X7 stood at 0.589 µM; at rat P2X7 it was 1.11 µM.
On the same counts, the results for `COc1cnc(-c2nnc3n2C[C@H](C)N(C(=O)c2cccc(C(F)(F)F)c2Cl)C3)nc1` [Example 78, (S)-(2-chloro-3-(trifluoromethyl)phenyl)(3-(5-methoxypyrimidin-2-yl)-6-methyl-5,6-dihydro-[1,2,4]triazolo[4,3-a]pyrazin-7(8H)-yl)methanone] are 0.0143 µM and 6.61 µM.
With `CC(C)(C)c1nnc2n1CCN(C(=O)c1cccc(C(F)(F)F)c1Cl)[C@H]2c1ccccc1` [Example 82, (S)-(3-(tert-butyl)-8-phenyl-5,6-dihydro-[1,2,4]triazolo[4,3-a]pyrazin-7(8H)-yl)(2-chloro-3-(trifluoromethyl)phenyl)methanone], the values for the IC50 on P2X7 and on rat P2X7 were 0.959 µM and 1.85 µM, respectively.
For `O=C(c1cccc(C(F)(F)F)c1Cl)N1CCn2c(-c3ccco3)nnc2[C@H]1c1ccccc1` [Example 83, (R)-(2-chloro-3-(trifluoromethyl)phenyl)(3-(furan-2-yl)-8-phenyl-5,6-dihydro-[1,2,4]triazolo[4,3-a]pyrazin-7(8H)-yl)methanone], in that order: 1.79 µM and 0.998 µM.
For `CCc1nnc2n1CCN(C(=O)c1cccc(C(F)(F)F)c1Cl)[C@H]2c1ccccc1` [Example 87, (S)-(2-chloro-3-(trifluoromethyl)phenyl)(3-ethyl-8-phenyl-5,6-dihydro-[1,2,4]triazolo[4,3-a]pyrazin-7(8H)-yl)methanone], in that order: 3.81 µM and 9.93 µM.
For `CC(C)c1nnc2n1CCN(C(=O)c1cccc(C(F)(F)F)c1Cl)[C@H]2c1ccccc1` [Example 89, (S)-(2-chloro-3-(trifluoromethyl)phenyl)(3-isopropyl-8-phenyl-5,6-dihydro-[1,2,4]triazolo[4,3-a]pyrazin-7(8H)-yl)methanone], in that order: 0.98 µM and > 10 µM.
Regarding `Cc1nnc2n1CCN(C(=O)c1cccc(C(F)(F)F)c1Cl)[C@H]2c1ccccn1` [Example 92, (S)-(2-chloro-3-(trifluoromethyl)phenyl)(3-methyl-8-(pyridin-2-yl)-5,6-dihydro-[1,2,4]triazolo[4,3-a]pyrazin-7(8H)-yl)methanone], the results for the IC50 at P2X7 and at rat P2X7 were 0.755 µM and 17.7 µM, respectively.
For `O=C(c1cccc(C(F)(F)F)c1Cl)N1CCn2c(C3CCC3)nnc2[C@@H]1c1ccccc1` [Example 94, (S)-(2-chloro-3-(trifluoromethyl)phenyl)(3-cyclobutyl-8-phenyl-5,6-dihydro-[1,2,4]triazolo[4,3-a]pyrazin-7(8H)-yl)methanone], in that order: 0.433 µM and 2.16 µM.
On the same counts, the results for `O=C(c1cccc(C(F)(F)F)c1Cl)N1CCn2c(nnc2C(F)(F)F)[C@@H]1c1ccccc1` [Example 98, (S)-(2-chloro-3-(trifluoromethyl)phenyl)(8-phenyl-3-(trifluoromethyl)-5,6-dihydro-[1,2,4]triazolo[4,3-a]pyrazin-7(8H)-yl)methanone] are 5.51 µM and > 10 µM.
On the same counts, the results for `O=C(c1cccc(Cl)c1Cl)N1CCn2c(nnc2C(F)(F)F)[C@@H]1c1ccccc1` [Example 103, (S)-(2,3-dichlorophenyl)(8-phenyl-3-(trifluoromethyl)-5,6-dihydro-[1,2,4]triazolo[4,3-a]pyrazin-7(8H)-yl)methanone] are 1.4 µM and > 10 µM.
For `Cc1nnc2n1CCN(C(=O)c1cccc(Cl)c1Cl)[C@@H]2c1ccc(F)cc1` [Example 104, (R)-(2,3-dichlorophenyl)(8-(4-fluorophenyl)-3-methyl-5,6-dihydro-[1,2,4]triazolo[4,3-a]pyrazin-7(8H)-yl)methanone], the IC50 at P2X7 is 4.48 µM; at rat P2X7, > 10 µM.
On the same counts, the results for `O=C(c1cccc(C(F)(F)F)c1Cl)N1CCn2c(C3CC3)nnc2[C@H]1c1ccc(F)cc1` [Example 106, (R)-(2-chloro-3-(trifluoromethyl)phenyl)(3-cyclopropyl-8-(4-fluorophenyl)-5,6-dihydro-[1,2,4]triazolo[4,3-a]pyrazin-7(8H)-yl)methanone] are > 10 µM and > 10 µM.
As to `O=C(c1cccc(C(F)(F)F)c1Cl)N1CCn2c(C(F)F)nnc2[C@@H]1c1ccccc1` [Example 109, (S)-(2-chloro-3-(trifluoromethyl)phenyl)(3-(difluoromethyl)-8-phenyl-5,6-dihydro-[1,2,4]triazolo[4,3-a]pyrazin-7(8H)-yl)methanone], the IC50 on P2X7 and at rat P2X7 was > 10 µM in each case.
In the case of `O=C(c1cccc(Cl)c1Cl)N1CCn2c(C(F)F)nnc2[C@@H]1c1ccccc1` [Example 111, (S)-(2,3-dichlorophenyl)(3-(difluoromethyl)-8-phenyl-5,6-dihydro-[1,2,4]triazolo[4,3-a]pyrazin-7(8H)-yl)methanone], the IC50 at P2X7 and at rat P2X7 was > 10 µM throughout.
As to `Cc1nnc2n1CCN(C(=O)c1cccc(Cl)c1Cl)[C@H]2c1ccccn1` [Example 113, (S)-(2,3-dichlorophenyl)(3-methyl-8-(pyridin-2-yl)-5,6-dihydro-[1,2,4]triazolo[4,3-a]pyrazin-7(8H)-yl)methanone], the IC50 at P2X7 is 3.81 µM; on rat P2X7, > 10 µM.
As for `Cc1nnc2n1CCN(C(=O)c1cccc(C(F)(F)F)c1Cl)[C@@H]2c1ccc(F)cc1` [Example 114, (R)-(2-chloro-3-(trifluoromethyl)phenyl)(8-(4-fluorophenyl)-3-methyl-5,6-dihydro-[1,2,4]triazolo[4,3-a]pyrazin-7(8H)-yl)methanone], the IC50 on P2X7 is 4.08 µM; at rat P2X7 it was > 10 µM.
On the same counts, the results for `O=C(c1ccc(F)cc1Cl)N1CCn2c(nnc2C(F)(F)F)[C@H]1c1ccccc1` [Example 118, (R)-(2-chloro-4-fluorophenyl)(8-phenyl-3-(trifluoromethyl)-5,6-dihydro-[1,2,4]triazolo[4,3-a]pyrazin-7(8H)-yl)methanone] are 0.921 µM and 19.6 µM.
